# Assay results taken from PMC8774682, “Inhibitory Mechanism of Baicalein on Acetylcholinesterase: Inhibitory Interaction, Conformational Change, and Computational Simulation” (Foods, 2022).
# Like-named read-outs stand apart in the source and are kept apart here.
# What was measured:
# [1] = target: T1, AChE (Electrophorus electricus, UniProt O42275); experiment: AChE activity assay (Ellman's method, modified); format: biochemical
# T1 construct: purchased Sigma-Aldrich Co. (St. Louis, MO, USA)
# Experimental: AChE (137 U/mg, Electrophorus electricus) was provided by Sigma-Aldrich Co. (St. Louis, MO, USA), and their stock solutions with 10 U/mL concentrations were prepared with 0.1 M phosphate-buffered saline (pH 7.6) and stored at −20 °C. Baicalein (purity ≥ 98%) was obtained from the National Institute for the Control of Pharmaceutical and Biological Products (Beijing, China) and dissolved in ethanol to prepare the stock solution (5 mM). 5,5-Dithiobis-(2-nitrobenzoic acid) (DTNB), acetylthiocholine iodide (ATCI), galathamine hydrobromide, and 3-(4, 5-dimethylthiazol-2-yl)-2,5-diphenyltetrazolium bromide (MTT) were provided by Aladdin Chemistry Co., Ltd. (Shanghai, China). Foetal bovine serum (FBS) was purchased from Gibco (Carlsbad, CA, USA). Dulbecco’s modified Eagle’s medium (DMEM), trypsin, and other cell culture reagents were purchased from Solarbio (Beijing, China). All remaining reagents were of analytical grade.
# AChE activity was evaluated per Ellman’s method, albeit with a slight modification. Quartz cuvettes (3 mL) were utilised for measuring the assay mixture activity. Solutions containing varying amounts of baicalein, phosphate-buffered saline (0.1 M, pH 7.6), and 50 µL of AChE (2 U/mL, 3.4 × 10^−8 M) were cultivated in 30 min at 25 °C. After the pre-incubation period, 50 μL of 5, 5-dithiobis-(2-nitrobenzoic) acid (DNTB, 5 mM) was added. The reaction was then initiated with 50 μL of acetylthiocholine iodide (ATCI, 15 mM). The absorbance at 412 nm was monitored every 5 s with the TU−1901 dual-beam UV–Vis Spectrophotometer (Persee; Beijing, China). The samples were measured thrice, and the average value was considered. Enzyme activity without baicalein was identified to be 100%. […] Galantamine hydrobromide served as the positive control.
# [2] = target: T1, AChE; experiment: Kinetic analysis of the inhibitory type (Lineweaver–Burk plots, v vs. AChE plots); format: biochemical
# Text: The Lineweaver–Burk plots and Michaelis–Menten enzyme kinetics were applied to analyse the inhibitory type. For competitive type inhibition, the dynamic double reciprocal equation was used as follows:(1) 1/v=Km/vmax(1+(I) /Ki)1/(S)+1/vmax (2) Kmapp=Km(I)/Ki+Km where (I) and (S) denote the inhibitor and substrate concentrations, respectively; ν represents the enzyme reaction rate irrespective of the presence of baicalein; νmax is the maximum catalytic reaction rate; Ki, Km, and Kmapp stand for the inhibition constant, Michaelis−Menten constant, and apparent Michaelis constant, respectively.
# [3] = target: T1, AChE; experiment: Time-course test of AChE inactivation kinetics; format: biochemical
# Experimental: The kinetic process and rate constants for enzyme inactivation were determined through the time-course test. Baicalein with concentrations of 2, 4, 8, and 16 µM was used for analysing the time-course. Enzyme activity at each concentration was measured every 3 min for 0–30 min, every 6 min for 30–60 min, and then at 70 and 80 min.
# [4] = target: T1, AChE; experiment: Fluorescence quenching and synchronous fluorescence of AChE; format: binding
# Experimental: A spectrofluorometer (model F-7000; Hitachi, Tokyo, Japan) containing a thermostat bath was used to measure the fluorescence spectra. The AChE solution (2.5 mL; 0.17 µM) was introduced into a 1.0 cm path length quartz cell, followed by titration through the successive addition of 2.0 mM of diluted baicalein solution (to obtain the concentration range of 0–16 µM). The well-mixed solutions were set aside for three min for equilibration purposes. The fluorescence spectra were measured in the 290–450 nm range, and the relevant excitation wavelength set was 280 nm at 25 °C, 31°C, and 37 °C. Excitation and emission bandwidths were 2.5 nm. In addition, synchronous fluorescence spectra for AChE with baicalein were conducted by fixing the interval of excitation and emission wavelength constants at 15 nm and 60 nm. Fluorescence data were amended according to our previous reports to erase the re-absorption possibility and the inner filter effects of UV absorption.
# The binding constant (Ka) for the AChE–bacalein complex and the binding site number (n) were measured using Equation (3):(3) logF0−F/F=nlogKa−nlog1/(Qt)−(F0−F)(Pt)/F0
# In general, four noncovalent interaction forces exist between small molecules and macromolecules, namely hydrogen bonds, van der Waals forces, electrostatic forces, and hydrophobic interactions. To identify the binding forces between bacalein and AChE, the thermodynamic parameters were measured following the Van’t Hoff equation:(4) logKa=−ΔH°/2.303RT+ΔS°/2.303R (5) ΔG°=ΔH°−TΔS° where Ka denotes the binding constant, and R represents the gas constant (8.314 J mol^−1 K^−1). The temperatures (T) used were 25 °C, 31 °C, and 37 °C.
# [5] = target: T1, AChE; experiment: Far-UV CD spectra, secondary structure of AChE; settings: c(AChE) = 0.75 µM
# Experimental: Far-UV CD spectra were measured using a spectrometer (MOS 450 CD; Bio-Logic, Claix, France) with a 1.0 mm path length quartz cuvette. All the spectra were measured in the 200–240 nm range at 25 °C, and the associated scan speed was 60 nm min^−1. The AChE in the PBS was completely blended with baicalein at varying concentrations and then equilibrated for three min before CD measurements. The spectra were amended by subtracting the spectrum of the buffer with that of baicalein at the same concentration as the sample solution. Three scans were conducted, and the ellipticity in millidegrees indicated the results. The contents of the discrepant secondary structures (α-helix, β-sheet, β-turn, and random coil) from AChE were measured based on CD spectroscopic data following the online SELCON3 program (http://dichroweb.cryst.bbk.ac.uk/html/home.shtml. Accessed on: 18 August 2021).
# [6] = tested on: PC12 cells; experiment: Cytotoxicity in PC12 cells (MTT assay); format: cell-based; settings: 1–80 µM, 24 h
# Experimental: PC12 cells were purchased from the NanJing KeyGen Biotech Co. Ltd. (Nanjing, China). These cells were cultivated in high-glucose DMEM supplemented with 10% FBS, 100 U/mL of penicillin and 100 µg/mL of streptomycin at 37 °C under a humidified 5% CO2 atmosphere. Baicalein was dissolved in DMSO to prepare a 5 mM stock solution and diluted with serum-free media before use. PC12 cells were seeded into a 96-well plate at the density of 2 × 10 ^4 cells/well (100 μL) and cultured for 24 h. Next, the medium was changed, and the cells were treated with baicalein at 0, 1, 10, 20, 40, and 80 µM. Each concentration had six replicate wells, and the culture was continued for 24 h. To determine the effect of baicalein on cell viability, 20 µL of MTT (5 mg/mL) was added to each well. After 4 h, the resulting formazan crystals were dissolved by adding 150 μL of DMSO for 10–15 min. The absorption (O.D.) of each hole at 570 nm wavelength was measured using an enzyme-labelled instrument (Varioskan LUX; Thermo Fisher Scientific, Waltham, MA, USA). Cell viability was expressed as the percentage of the control.
# [7] = Van't Hoff equation, 25, 31, 37 °C
# T1 sequence (O42275 24-633): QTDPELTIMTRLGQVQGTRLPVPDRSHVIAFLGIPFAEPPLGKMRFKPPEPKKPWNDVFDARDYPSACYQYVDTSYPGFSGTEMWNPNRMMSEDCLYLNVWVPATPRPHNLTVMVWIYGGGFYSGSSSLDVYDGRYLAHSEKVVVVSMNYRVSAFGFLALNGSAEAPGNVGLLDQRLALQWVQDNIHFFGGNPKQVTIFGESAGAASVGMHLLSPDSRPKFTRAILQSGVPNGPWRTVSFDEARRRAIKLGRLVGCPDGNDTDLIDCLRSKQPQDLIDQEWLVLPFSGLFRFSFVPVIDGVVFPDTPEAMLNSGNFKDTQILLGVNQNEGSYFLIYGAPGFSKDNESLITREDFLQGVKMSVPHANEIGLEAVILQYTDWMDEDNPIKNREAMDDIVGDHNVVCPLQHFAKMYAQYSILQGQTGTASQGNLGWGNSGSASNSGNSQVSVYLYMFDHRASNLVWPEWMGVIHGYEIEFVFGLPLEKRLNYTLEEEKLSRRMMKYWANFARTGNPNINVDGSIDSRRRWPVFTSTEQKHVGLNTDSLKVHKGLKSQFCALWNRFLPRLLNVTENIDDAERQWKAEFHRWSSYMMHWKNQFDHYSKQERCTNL
structure (smiles),measurement,setting,value
"O=C(O)[C@H]1O[C@@H](Oc2cc3oc(-c4ccccc4)cc(=O)c3c(O)c2O)[C@H](O)[C@@H](O)[C@@H]1O [baicalin, reference compound]",IC50,[1],204 ± 16.5 µM
"O=c1cc(-c2ccccc2)oc2cc(O)c(O)c(O)c12 [baicalein, 5,6,7-trihydroxyflavone]",IC50,[1],6.42 ± 0.07 µM
same,inhibition at 26.7 µM,[1]; read-out: final inhibition rate of AChE activity,90%
same,Ki,"[2]; Lineweaver–Burk, baicalein 0, 4, 8, 10 µM, c(AChE) = 0.57 nM, read-out: Ki (inhibition constant)",4.32 ± 0.26 µM
same,inhibition type,[2]; double reciprocal plots intersect on the Y axis,competitive
same,inhibition reversibility,"[2]; plots of v vs. AChE concentration, baicalein 0-16 µM",reversible
same,Inactivation rate constant k,[3]; baicalein 2 µM,1.48 ± 0.03 ×10^−4 s^−1
same,Inactivation rate constant k,[3]; baicalein 4 µM,2.42 ± 0.05 ×10^−4 s^−1
same,Inactivation rate constant k,[3]; baicalein 8 µM,4.01 ± 0.02 ×10^−4 s^−1
same,Inactivation rate constant k,[3]; baicalein 16 µM,5.18 ± 0.08 ×10^−4 s^−1
same,"bimolecular quenching constant Kq, magnitude order",[4]; 25-37 °C,~10^13 L mol^−1 s^−1
same,Kd,"[4]; 25-37 °C, read-out: binding constant, order of magnitude",~100 µM
same,binding site number n,[4]; 25 °C,0.88 ± 0.01
same,quenching constant KSV,[4]; 25 °C,6.45 ± 0.02 ×10^4 L mol^−1
same,∆G°,[4]; 25 °C,-5.428 ± 0.014 kcal/mol
same,Kd,"[4]; 25 °C, read-out: binding constant Ka (converted)",15 µM
same,binding site number n,[4]; 31 °C,0.93 ± 0.03
same,quenching constant KSV,[4]; 31 °C,5.78± 0.03 ×10^4 L mol^−1
same,∆G°,[4]; 31 °C,-5.457 ± 0.0072 kcal/mol
same,Kd,"[4]; 31 °C, read-out: binding constant Ka (converted)",17.1 µM
same,binding site number n,[4]; 37 °C,1.13 ± 0.02
same,quenching constant KSV,[4]; 37 °C,5.22± 0.07 ×10^4 L mol^−1
same,∆G°,[4]; 37 °C,-5.483 ± 0.019 kcal/mol
same,Kd,"[4]; 37 °C, read-out: binding constant Ka (converted)",19.6 µM
same,∆H°,[4]; [7],-4.065 ± 0.0048 kcal/mol
same,∆S°,[4]; [7],19.15 ± 0.09 J mol^−1 K^−1
same,"synchronous fluorescence quenching ratio RSFQ, Tyr residues","[4]; Δλ = 15 nm, baicalein up to 16.0 μM, c(AChE) = 0.17 µM",58.48%
same,"synchronous fluorescence quenching ratio RSFQ, Trp residues","[4]; Δλ = 60 nm, baicalein up to 16.0 μM, c(AChE) = 0.17 µM",63.83%
same,Random coil content of AChE,[5]; molar ratio baicalein:AChE 2:1,25.36 ± 0.29%
same,α-Helix content of AChE,[5]; molar ratio baicalein:AChE 2:1,38.82 ± 0.08%
same,β-Sheet content of AChE,[5]; molar ratio baicalein:AChE 2:1,14.57 ± 0.13%
same,β-Turn content of AChE,[5]; molar ratio baicalein:AChE 2:1,21.42 ± 0.57%
same,Random coil content of AChE,[5]; molar ratio baicalein:AChE 6:1,21.71 ± 0.47%
same,α-Helix content of AChE,[5]; molar ratio baicalein:AChE 6:1,42.53 ± 0.35%
same,β-Sheet content of AChE,[5]; molar ratio baicalein:AChE 6:1,7.73 ± 0.03%
same,β-Turn content of AChE,[5]; molar ratio baicalein:AChE 6:1,28.15 ± 0.89%
same,"cytotoxicity (cell viability, MTT)",[6],nontoxic
